# Laboratory results reported in patent USRE39887E1, “Dehydrodidemnin B” (Pharma Mar, S.A., priority 1989, dated 2007).
# Starred links: 1 amine or outer side, 2 acyl side, 3 side chain; linkers in the order of their positions; H or OH if unused. Positions of bridges follow the written chain, without caps; N, C: chain ends. Non-standard residues stand in square brackets, D forms with d. Residues, ends and D or L forms follow the SMILES beside them. *: point of attachment. X1 = CC[C@H](C)[C@@H](N[*:1])[C@@H](O)CC(=O)O[C@H](C(=O)[C@H](C)C(=O)[*:2])C(C)C; NMeY = CN[C@@H](Cc1ccc(O)cc1)C(=O)O; dNMeL = CN[C@H](CC(C)C)C(=O)O; Pyruvoyl = CC(=O)C(=O)*
# Columns and labels:
# [1] = test system: murine B-cells; assay: Growth of murine B-cells
# [2] = test system: CV-1 cells (monkey kidney cells); assay: Cytotoxicity to CV-1 cells; type: cell-based
# [3] = test system: L-929 cells; assay: Growth inhibition of L-929 cells; type: cell-based, mouse; conditions: for % Inhibition / net increase in cell number: 4 days after seeding
# Method: 2.3 Assay Against L-929 Cells (Mouse Areolar and Adipose Tissue)
# (§1) L-929 cells were seeded into 16 mm wells at 1×10^4 cells per well in 1 mL aliquots of MEM 10C. The following day, medium was replaced with 0.5 mL aliquots of MEM 10C. The following day, the medium was replaced with 0.5 mL aliquots of MEM 10C containing the indicated concentrations of drug. All determinations were carried out in triplicate. A separate set of cultures without drug was counted daily to ensure that the cells remained in exponential growth over the period of observation. Cells were typsinized and counted 4 days after seeding.
# [4] = test system: KB cells; assay: Growth inhibition of KB cells; type: cell-based, human; conditions: for % Inhibition / net increase in cell number: KB
# [5] = test system: B-16 melanoma cells; assay: B-16 melanoma in vivo activity; set-up: species or system mouse; conditions: QD 1-9, IP; for B-16 Melanoma % T/C: significant activity T/C ≧ 125
# [6] = test system: A-549 cells; assay: Growth inhibition of A-549 cells; type: cell-based, human; conditions: for % Inhibition / net increase in cell number: 4 days after seeding
# Method: 2.5 Assay Against A-549 Cells (Human Lung Carcinoma)
# as §1, with “A-549” for “L-929”, “1” for “1 mL aliquots of MEM 10C. The following day, medium was replaced with 0.5”, “trypsinated” for “typsinized”
# [7] = test system: B-16 cells; assay: Growth inhibition of B-16 cells; type: cell-based, mouse; conditions: for % Inhibition / net increase in cell number: 4 day after seeding
# Method: 2.4 Assay Against B-16 (Mouse Melanoma)
# B-16 cells were seeded into 16 mm wells at 1×10^4 cells per well in 1 mL aliquots of MEM 10C […] were carried out in triplicate. A separate set of cultures without drug was counted daily to ensure that the cells remained in exponential growth over the period for observation. Cells were typsinized and counted 4 day after seeding.
# [8] = test system: P-388 mouse leukemia cells; assay: P-388 in vivo activity; conditions: QD 1-9, IP
# [9] = test system: Lewis lung carcinoma cells; assay: Lewis lung in vivo activity; conditions: QD 1-9, IP
# [10] = test system: L-1210 cells; assay: Growth inhibition of L-1210 cells; type: cell-based, mouse
# Method: 2.1 Assay Against L-1210 Cells (Ascetic Fluid from DBA/2mouse)
# (§2) L-1210 cells were seeded into 16 mm wells at 1×10^4 cells per well in 1 mL aliquots of MEN 10C containing the indicated concentrations of drug. All determinations were carried out in triplicate. Cells were counted after three drugs was counted daily to ensure that the cells remained in exponential growth over the period of observation.
# [11] = test system: murine cells; assay: Mixed lymphocyte reaction
# [12] = test system: murine T-cells; assay: Growth of murine T-cells
# [13] = test system: Herpes simplex virus, type 1; assay: Inhibition of HSV-1 replication in CV-1 cells; type: cell-based; set-up: net virus produced / % Inhibition: dose or concentration left out as unconfirmed; conditions: HSV-1 in CV-1 cells; for % Inhibition / net virus produced: 24 hours after infection
# Method: 2.8 Assay Against HSV-1 (Herpes Simplex Virus Type-1)
# 16 mm diameter wells were seeded each with 2×10^5 CV-1 cells in 1 mL aliquots of MEM 10C. Four days after, cells were infected with HSV-1 at 10C PFU per well. After adsorption for 1.5 hours, the inoculum was replaced in pairs of wells with 0.5 mL aliquots of MEM 5C containing the indicated concentrations of drug. Cells from two wells without drug were scraped into the medium and frozen 4 hours after infection to provide a baseline for calculating new virus production. The average of these samples was 2.5×10^5+1.2×10^6 PFU per mL. The remaining samples were collected 24 hours after infection.
# [14] = test system: P-388 cells; assay: Growth inhibition of P-388 cells; type: cell-based, mouse; conditions: for % Inhibition / net increase in cell number: three days
# Method: 2.2 Assay Against P-388 Cells (Lymphoid Neoplasm from DBA/2mouse)
# as §2, with “P-388” for “L-1210”, “MEM” for “MEN”, “determination” for “determinations”, “days of incubation. A separate set of cultures within drug” for “drugs”
# [15] = test system: HeLa cells; assay: Growth inhibition of HeLa cells; type: cell-based, human; conditions: HeLa cells in vitro
# Method: 2.6 Assay Against HeLa Cells (Human Cervix Epithelioid Carcinoma)
# as §1, with “HeLa” for “L-929”, “1” for “1 mL aliquots of MEM 10C. The following day, medium was replaced with 0.5”, “trypsinized” for “typsinized”
# [16] = Immunosuppressive / immunomodulator activity
# [17] = Montgomery et al., Transplantation, 40, 49-56 (1985); cited from earlier work
# [18] = test system: human lymphocytes; conditions: compared with other didemnin compounds; Montgomery et al. (1987); cited from earlier work
smiles,measurement,setting,value
"CC[C@H](C)[C@H]1NC(=O)[C@@H](NC(=O)[C@@H](CC(C)C)N(C)C(=O)[C@@H]2CCCN2C(=O)C(C)=O)[C@@H](C)OC(=O)[C@H](Cc2ccc(OC)cc2)N(C)C(=O)[C@@H]2CCCN2C(=O)[C@H](CC(C)C)NC(=O)[C@@H](C)C(=O)[C@H](C(C)C)OC(=O)C[C@@H]1O [DDB, dehydrodidemnin B] (Pyruvoyl-P[dNMeL]T[X1]LP[NMeY](Me); ester 3-C)",growth of murine B-cells,[1],inhibits the growth
same,IC50,[2],1000 ng/mL
same,% Inhibition,"[3]; L-929, 1 ng/mL DDB",27%
same,net increase in cell number,"[3]; L-929, 1 ng/mL DDB",2.31 × 10^5
same,% Inhibition,"[3]; L-929, 2.5 ng/mL DDB",64%
same,net increase in cell number,"[3]; L-929, 2.5 ng/mL DDB",1.13 × 10^5
same,% Inhibition,"[3]; L-929, 5 ng/mL DDB",84%
same,net increase in cell number,"[3]; L-929, 5 ng/mL DDB",5 × 10^5
same,IC50,[3]; L-929 cells in vitro,1.9 ng/mL
same,IC50,[4]; KB cells in vitro,5.6 ng/mL
same,% Inhibition,[4]; 2.5 ng/mL DDB,0%
same,net increase in cell number,[4]; 2.5 ng/mL DDB,4.57 × 10^4
same,% Inhibition,[4]; 5 ng/mL DDB,46%
same,net increase in cell number,[4]; 5 ng/mL DDB,2.40 × 10^4
same,% Inhibition,[4]; 10 ng/mL DDB,77%
same,net increase in cell number,[4]; 10 ng/mL DDB,1.02 × 10^4
same,B-16 Melanoma Median Survival Time Days,[5]; 80 μg/kg/injn,>27.0 days
same,B-16 Melanoma % T/C,[5]; 80 μg/kg/injn,>158%
same,B-16 Melanoma Median Survival Time Days,[5]; 160 μg/kg/injn,>27.0 days
same,B-16 Melanoma % T/C,[5]; 160 μg/kg/injn,>158%
same,% Inhibition,"[6]; A-549, 0.25 ng/mL DDB",41%
same,net increase in cell number,"[6]; A-549, 0.25 ng/mL DDB",4.80 × 10^4
same,% Inhibition,"[6]; A-549, 0.50 ng/mL DDB",50%
same,net increase in cell number,"[6]; A-549, 0.50 ng/mL DDB",4.00 × 10^4
same,% Inhibition,"[6]; A-549, 1.0 ng/mL DDB",68%
same,net increase in cell number,"[6]; A-549, 1.0 ng/mL DDB",2.50 × 10^4
same,% Inhibition,"[6]; A-549, 2.5 ng/mL DDB",84%
same,net increase in cell number,"[6]; A-549, 2.5 ng/mL DDB",1.30 × 10^4
same,IC50,[6]; A-549 cells in vitro,0.5 ng/mL
same,% Inhibition,"[7]; B-16, 0.12 ng/mL DDB",25%
same,net increase in cell number,"[7]; B-16, 0.12 ng/mL DDB",1.27 × 10^5
same,% Inhibition,"[7]; B-16, 0.16 ng/mL DDB",0%
same,net increase in cell number,"[7]; B-16, 0.16 ng/mL DDB",1.71 × 10^5
same,% Inhibition,"[7]; B-16, 0.25 ng/mL DDB",54%
same,net increase in cell number,"[7]; B-16, 0.25 ng/mL DDB",8.25 × 10^5
same,% Inhibition,"[7]; B-16, 0.5 ng/mL DDB",74%
same,net increase in cell number,"[7]; B-16, 0.5 ng/mL DDB",4.50 × 10^4
same,% Inhibition,"[7]; B-16, 1.0 ng/mL DDB",83%
same,net increase in cell number,"[7]; B-16, 1.0 ng/mL DDB",2.88 × 10^4
same,IC50,[7]; B-16 cells in vitro,0.225 ng/mL
same,"P-388, Median Survival Time",[8]; 80 μg/kg/injn,19.5 days
same,"P-388, Median Survival Time",[8]; 160 μg/kg/injn,21.0 days
same,"Lewis Lung, Mean Tumor Volume",[9]; 80 μg/kg/injn,189 mm^3
same,"Lewis Lung, Mean Tumor Volume",[9]; 160 μg/kg/injn,0 mm^3
same,% Inhibition,"[10]; L-1210, 0.05 ng/mL DDB",7%
same,net increase in cell number,"[10]; L-1210, 0.05 ng/mL DDB",2.7 × 10^5
same,% Inhibition,"[10]; L-1210, 0.1 ng/mL DDB",7%
same,net increase in cell number,"[10]; L-1210, 0.1 ng/mL DDB",2.7 × 10^5
same,% Inhibition,"[10]; L-1210, 0.2 ng/mL DDB",28%
same,net increase in cell number,"[10]; L-1210, 0.2 ng/mL DDB",2.1 × 10^5
same,% Inhibition,"[10]; L-1210, 0.5 ng/mL DDB",66%
same,net increase in cell number,"[10]; L-1210, 0.5 ng/mL DDB",1.0 × 10^5
same,% Inhibition,"[10]; L-1210, 1 ng/mL DDB",91%
same,net increase in cell number,"[10]; L-1210, 1 ng/mL DDB",2.5 × 10^5
same,% Inhibition,"[10]; L-1210, 2 ng/mL DDB",98%
same,net increase in cell number,"[10]; L-1210, 2 ng/mL DDB",6.3 × 10^5
same,IC50,[10]; L-1210 cells in vitro,0.3 ng/mL
same,immune reaction in the mixed lymphocyte reaction,[11],suppresses the immune reaction of murine cells
same,growth of murine T-cells,[12],inhibits the growth
same,IC50,[13],60 ng/mL
same,% Inhibition,[13]; 0.03 DDB,16%
same,net virus produced,[13]; 0.03 DDB,3.8 × 10^8 PFU/mL
same,% Inhibition,[13]; 0.1 DDB,67%
same,net virus produced,[13]; 0.1 DDB,1.5 × 10^8 PFU/mL
same,% Inhibition,[13]; 0.3 DDB,96%
same,net virus produced,[13]; 0.3 DDB,1.9 × 10^8 PFU/mL
same,% Inhibition,[13]; 1 DDB,100%
same,net virus produced,[13]; 1 DDB,0 PFU/mL
same,% Inhibition,"[14]; P-388, 0.12 ng/mL DDB",29%
same,net increase in cell number,"[14]; P-388, 0.12 ng/mL DDB",3.97 × 10^5
same,% Inhibition,"[14]; P-388, 0.25 ng/mL DDB",77%
same,net increase in cell number,"[14]; P-388, 0.25 ng/mL DDB",1.27 × 10^5
same,% Inhibition,"[14]; P-388, 0.5 ng/mL DDB",92%
same,net increase in cell number,"[14]; P-388, 0.5 ng/mL DDB",4.47 × 10^5
same,IC50,[14]; P-388 cells in vitro,0.175 ng/mL
same,IC50,[15],0.5 ng/mL
same,immunomodulator activity,[16],powerful immunomodulator
CC[C@H](C)[C@H]1NC(=O)[C@@H](NC(=O)[C@@H](CC(C)C)N(C)C(=O)[C@@H]2CCCN2C(=O)C(C)O)[C@@H](C)OC(=O)[C@H](Cc2ccc(OC)cc2)N(C)C(=O)[C@@H]2CCCN2C(=O)[C@H](CC(C)C)NC(=O)[C@@H](C)C(=O)[C@H](C(C)C)OC(=O)C[C@@H]1O (stereo partly shown) [Didemnin B],immunosuppressive activity,[17],potent immunosuppressive activity
same,inhibition of binding of prolactin to human lymphocytes,[18],more potent inhibition
